Holding throughout (type): cell-based, human
The subject of one assay is H2122. The assay is described as follows: Cell viability dose-response, H2122. Conditions: Homo sapiens; for AC50: NCI-H2122, Table 8, 12-point dose-response starting at 50 micromolar. An outline of the steps: (§1)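 Cells plated at 15% confluence in RPMI-1640 with 5% FBS and 2 mM L-glutamine, treated with compound in a 12-point, 3-fold dilution series from 50 micromolar, in duplicate. ATP measured by Cell Titer Glo after 4 days; IC50 taken from the dose-response curve.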

The test system of the next assay is HCC44. The assay is described as follows: Cell viability dose-response, HCC44. Conditions: Homo sapiens; for AC50: HCC44, Table 8, 12-point dose-response starting at 50 micromolar. As to the method:
FIG. 6A. […] Cell viability is plotted vs. compound concentration. Compound was added to cells plated at 15% confluence in 96-well plates in RPMI-1640 media supplemented with 5% Fetal Bovine Serum and 2 mM L-Glutamine. After 4 days of incubation, ATP levels were measured using Cell Titer Glo (Promega). Data are presented as the average of 2 replicates ±SEM.
Selectivity may be measured by the half maximal inhibitory concentration (IC50), which, as used herein, is a measure of the effectiveness of a compound in killing cells. This quantitative measure indicates how much of a particular compound is needed to kill a particular cell population by half (e.g., as indicated by the amount of ATP). […] The IC50 can be determined by constructing a dose-response curve. The lower the IC50, the higher the potency, and the greater the difference between IC50 values for different cell lines (e.g., sensitive lines vs. insensitive lines, and sensitive lines vs. normal lines) the greater the selectivity. […]
With this information, we synthesized and tested a series of small molecules derived in conception from the oxalamide and chromone scaffold including N-acyl ureas, as shown in Tables 6-8. Each compound was tested in a 12-point dose-response study starting at 50 micromolar and decreasing in 3-fold increments to sub-nanomolar concentrations, in duplicate. Additionally, one or more additional cell line was tested in the same way.

In a further assay the test system is H1819. The experiment in a line: Cell viability dose-response, H1819. Conditions: Homo sapiens. The method in brief: as §1
The mark [1] stands for this setting: NCI-H2122, Tables 3 and 4, read-out: IC50 (uM) vs indicated non-small cell lung cancer cell line H2122.
Setting [2] is: NCI-H2122, 12-point dose-response starting at 50 micromolar, 3-fold increments, in duplicate, read-out: toxicity data, H2122.
Setting [3] is: NCI-H1819, 12-point dose-response starting at 50 micromolar, 3-fold increments, in duplicate, read-out: toxicity data, H1819.
Setting [4] is: NCI-H1819, Tables 3 and 4, read-out: IC50 (uM) vs indicated non-small cell lung cancer cell line H1819.

Like-named read-outs stand apart in the source and are kept apart here.

As to `O=c1c(-c2ccccn2)coc2cc(OCc3cnn(-c4ccccc4)c3)ccc12` [SW208732], the results for the AC50 in the assay with H2122 and in the assay with HCC44 were at least 49500 nM and 49.5 µM, respectively.
In the case of `O=C(Nc1nc2c(s1)CCCC2)c1ccc(C(=O)c2ccccc2)cc1` [SW208741-1], the IC50 in the assay with H2122 (setting [1]) turned out to be 0.22 µM; in the assay on HCC44 (HCC44, Tables 3 and 4, read-out: IC50 (uM) vs indicated non-small cell lung cancer cell line HCC44) it was 3.64 µM.
Regarding `COc1cccc(-c2coc3cc(OCc4cnn(-c5ccccc5)c4)ccc3c2=O)c1` [SW208733], the AC50 – broadly, the concentration at which the activity in the assay is half-maximal – in the assay with H2122 stood at 740 nM; in the assay with HCC44, 49.5 µM.
For `O=c1c(-c2cccc(F)c2)coc2cc(OCc3cnn(-c4ccccc4)c3)ccc12` [SW208735], in that order: 550 nM and 49.5 µM.
As to `COc1ccc(CCNC(=O)NC(=O)c2ccccc2)cc1` [SW208142-1-A], the IC50 was 1.09 µM in the assay with H2122 (setting [2]) and at least 49.5 µM in the assay on H1819 (setting [3]).
The corresponding values for `COc1ccc(CCNC(=O)C(=O)Nc2ccc(C(=O)c3ccc(O)cc3)cc2)cc1` [SW208141-1-A] are at least 49.5 µM and at least 49.5 µM.
The corresponding values for `COc1ccc(CCNC(=O)C(=O)Nc2ccc(C)c(F)c2)cc1` [SW206880-1-A] are 0.306 µM and at least 49.5 µM.
The corresponding values for `COc1ccc(CCNC(=O)C(=O)Nc2ccccc2)cc1` [SW206967-1] are 0.456 µM and at least 49.5 µM.
On to `COc1ccc(CCCNC(=O)Nc2ccc(OC)cc2)cc1` [SW208029-1-A], for which the IC50 in the assay on H2122 (setting [2]) and in the assay with H1819 (setting [3]) was at least 49.5 µM in each case.
Regarding `COc1ccc(CCNC(=O)C(=O)Nc2ccc(Br)cc2Br)cc1` [SW206888-1-A], the IC50 in the assay with H2122 (setting [2]) and with H1819 (setting [3]) was at least 49.5 µM throughout.
`COc1ccc(CCNC(=O)C(=O)NCCc2ccc(OC)cc2)cc1` [SW206963-1]: the IC50 in the assay with H2122 (setting [2]) and with H1819 (setting [3]) was at least 49.5 µM throughout.
For `COc1ccc(CCNC(=O)C(=O)Nc2ccc(F)cc2Cl)cc1` [SW206863-1-a], the IC50 in the assay with H2122 (setting [2]) and in the assay with H1819 (setting [3]) was at least 49.5 µM in each case.
In the case of `O=c1c(-c2ccc(F)cc2)coc2cc(OCc3cnn(-c4ccccc4)c3)ccc12` [SW208737], the half-maximal activity concentration (AC50) in the assay with H2122 was determined as 270 nM; in the assay with HCC44 it was 49.5 µM.
Consider `C#CCOc1ccc2nc(NC(=O)c3ccc(C(=O)c4ccc(OC)cc4)cc3)sc2c1` [SW208187], for which the IC50 came to 0.288 µM in the assay with H2122 (setting [1]) and 0.697 µM in the assay with H1819 (setting [4]).
On to `Cc1ccc(Cc2coc3cc(OCc4cnn(-c5ccccc5)c4)ccc3c2=O)cc1` [SW209190-1], for which the AC50 was found to be 92 nM with H2122 and 49.5 µM with H1819 (NCI-H1819, Table 8, 12-point dose-response starting at 50 micromolar).
As for `COc1ccc(CCNC(=O)C(=O)Nc2cc(OC)ccc2Cl)cc1` [SW206870-1-A], the IC50 in the assay on H2122 (setting [2]) and with H1819 (setting [3]) was at least 49.5 µM in each case.
Turning to `COc1ccc(CCNC(=O)C(=O)Nc2c(Cl)cccc2Cl)cc1` [SW206890-1-A], the IC50 with H2122 (setting [2]) and in the assay on H1819 (setting [3]) was at least 49.5 µM in each case.
For the compound `COc1ccc(CCNC(=O)C(=O)Nc2ccc(C)cc2OC)cc1` [SW206971-1], the IC50 in the assay on H2122 (setting [2]) and in the assay on H1819 (setting [3]) was at least 49.5 µM throughout.
As to `CCCOc1ccc2nc(NC(=O)c3ccc(C(=O)c4ccccc4)cc3)sc2c1` [SW208186], the IC50 was found to be 0.107 µM with H2122 (setting [1]) and 13 µM in the assay with H1819 (setting [4]).
`COc1ccc(CCNC(=O)C(=O)Nc2ccc(Cl)cn2)cc1` [SW208123-1-A]: the IC50 with H2122 (setting [2]) came out at 0.348 µM; in the assay with H1819 (setting [3]), 46.3 µM.
The corresponding values for `COc1ccc(CCNC(=O)C(=O)Nc2cccc(OC)c2)cc1` [SW206871-1-A] are 0.932 µM and at least 49.5 µM.
For `Cc1ccc(CCNC(=O)C(=O)Nc2ccc(Cl)cc2)cc1` [SW208036-1-A], in that order: at least 49.5 µM and at least 49.5 µM.

For the origin of these results see US9789096B2, “Methods and compositions for selective and targeted cancer therapy” (Board of Regents of the University of Texas System, priority 2013, dated 2017).
